Measurements: patent US20260007634A1, “PHARMACEUTICAL COMPOSITIONS FOR THE TREATMENT OF ALLERGIC DISEASES” (KINKI UNIVERSITY, priority 2022, published 2026)

Experiments:
IL-4 = assay: Auricular tissue IL-4 ELISA, atopic dermatitis mice; format: in vivo, mouse; settings: day 7, topical application, control 56, vehicle 152
Experimental: MC903 at 2 nM was applied to the right auricle of a 6-week-old male Balb/c (Japan SLC Inc.). Starting 8 h later, 5% norathyriol aqueous solution (1 mL of ethanol containing […] of norathyriol), betamethasone ointment, and delgocitinib ointment were applied to the auricle for 7 days. The measurement of auricular skin swelling was calculated by calipers. The day on which the first application of the compound was made was defined as day 0. Betamethasone and delgocitinib are currently in clinical use in atopic dermatitis and were used as control drugs in this example.
The mouse IL-4 ELISA kit (R&D) was used for this measurement.

[1] = tested on: Balb/c mice with ovalbumin-induced allergic rhinitis; assay: Nose scratching behavior, ovalbumin-induced allergic rhinitis mice; format: in vivo, mouse; settings: OVA allergic rhinitis; oral daily 8 days from day 20, 10 mg/kg (dexamethasone 2 mg/kg); measured day 27; vs vehicle group
Experimental: (§1) A 0.2 mL dose of 50 μg ovalbumin (OVA) and 2 mg Alum mixture was administered to 6-week-old female Balb/c mice (Japan SLC Inc.) (day 0 of the example). Alum was used as an adjuvant. Seven days later and 14 days later, the Balb/c mice were immunized again with 0.2 mL injections of the above mixture. Starting on day 20, mice were orally treated with 10 mg/kg of norathyriol, 10 mg/kg of mangiferin 8a, 10 mg/kg of tofacitinib (JAK inhibitor), 2 mg/kg of dexamethasone (steroid) and 10 mg/kg of olopatadine (antihistamine) daily for 8 consecutive days. Starting on day 21, 400 μg OVA was administered intranasally, and nose-scratching behavior was measured on day 27. Note that tofacitinib, dexamethasone, and olopatadine are currently in clinical use in allergic rhinitis and were used as control drugs in this example.
The group that was just immunized with OVA is called the subject group, the one that received norathyriol is called the norathyriol group, the one that received mangiferin 8a is called the mangiferin 8a group, the one that received tofacitinib is called the tofacitinib group, the one that received dexamethasone is called the dexamethasone group, and the one that received olopatadine is called the olopatadine group. Each group consisted of five animals.

OVA-IgE antibody = assay: Serum OVA-IgE antibody ELISA, bronchial asthma mice; format: in vivo, mouse; settings: serum day 28, oral 10 mg/kg (dexamethasone 2 mg/kg), control 2.4, vehicle 66
Experimental: as §1, with “cough” for “nose-scratching behavior”
Serum was collected from day 28 mice in Examples 14, and OVA-IgE antibody production was measured by enzyme-linked immunosorbent assay (ELISA). This assay was performed using a mouse OVA-IgE antibody ELISAkit (FUJIFILM Wako).

BAFF = assay: Serum BAFF ELISA, bronchial asthma mice; format: in vivo, mouse; settings: OVA bronchial asthma; serum day 28; oral 10 mg/kg (dexamethasone 2 mg/kg); control 97, vehicle 1319
Experimental: as §1, with “cough” for “nose-scratching behavior”, “Note that tofacitinib, dexamethasone, and olopatadine are currently in clinical use in allergic rhinitis and were used as control drugs in this example.” left out
Serum was collected from day 28 mice in Examples 14, and BAFF production was measured by enzyme-linked immunosorbent assay (ELISA). This assay was performed using a mouse BAFF ELISA kit (R&D).

IL-17 = assay: Serum IL-17 ELISA, cedar pollinosis mice; format: in vivo, mouse; settings: serum day 28, oral 10 mg/kg (dexamethasone 2 mg/kg), control 18, vehicle 397
Experimental: as §1, with “of 100” for “of 50”, “μg cedar pollen” for “μg ovalbumin (OVA)”, “and 1” for “and 2”, “21, 500” for “21, 400”, “μg cedar pollen” for “μg OVA”, “in cedar pollinosis” for “in allergic rhinitis”
Serum was collected from day 28 mice in Examples 28 and 29, and IL-17 production was measured by enzyme-linked immunosorbent assay (ELISA). This assay was performed using a mouse IL-17 ELISA kit (R&D).

TNFα = assay: LPS-stimulated TNFα secretion in macrophages (ELISA); format: cell-based, mouse; settings: 10 μM compound, 10 μg/mL LPS 2 days, control 24.11, LPS 421.13
Experimental: Mouse macrophages were used to examine the inhibition of compounds on TNFα secretion in LPS stimulation.
Mouse macrophages were cultured in RPMI 1640 medium for 1 day. Then, 10 μM mangiferin 8a and 10 μM norathyriol were added to macrophages, and after 1 day of culture, 10 μg/mL of LPS was added to each, followed by 2 days of culture.
Thus, the samples were divided into “control” with no treatment, “10 μg/mL LPS+10 μM mangiferin 8a” to which 10 μg/mL LPS and 10 μM mangiferin 8a were added, and “10 μg/mL LPS+10 μM norathyriol” to which 10 μg/mL LPS and 10 μM norathyriol were added and only 10 μg/mL LPS was added (“[…] LPS”).
After these samples were incubated for 2 days, the culture supernatant was collected and TNFα secretion was measured by enzyme-linked immunosorbent assay (ELISA). The mouse TNFα ELISA kit (R&D) was used for this measurement.

Structure (SMILES) | IL-4 secretion (IL-4) [pg/mL] | number of nose scratches [1] | amount of OVA-IgE antibody (OVA-IgE antibody) [U/mL] | amount of BAFF (BAFF) [pg/mL] | amount of IL-17 (IL-17) [pg/mL] | TNFα secretion (TNFα) [pg/mL]
O=c1c2cc(O)c(O)cc2oc2cc(O)cc(O)c12 [norathyriol, 1,3,6,7-tetrahydroxyxanthone] | 94 | significantly decreased the number of nose scratches | 28 | 649 | 195 | 68.13
C[C@@H]1C[C@H]2[C@@H]3CCC4=CC(=O)C=C[C@]4(C)[C@@]3(F)[C@@H](O)C[C@]2(C)[C@@]1(O)C(=O)CO [dexamethasone] |  |  | 18 | 321 | 49 | 
C[C@@H]1CCN(C(=O)CC#N)C[C@@H]1N(C)c1ncnc2[nH]ccc12 [tofacitinib] |  | significantly decreased the number of nose scratches | 50 | 902 | 244 | 
CN(C)CC/C=C1/c2ccccc2COc2ccc(CC(=O)O)cc21 [olopatadine] |  | significantly decreased the number of nose scratches | 69 | 1304 | 172 | 
